Measured values taken from US12331051B2 (priority 2021, dated 2025).

Assays:
[1] = target: T1, Alpha 2B adrenergic receptor (Homo sapiens, UniProt P18089); assay: Radioligand binding, cell membrane homogenates
T1 construct: expressed in transfected cells; host or cells: HEK-293
T1 sequence (P18089 1-450): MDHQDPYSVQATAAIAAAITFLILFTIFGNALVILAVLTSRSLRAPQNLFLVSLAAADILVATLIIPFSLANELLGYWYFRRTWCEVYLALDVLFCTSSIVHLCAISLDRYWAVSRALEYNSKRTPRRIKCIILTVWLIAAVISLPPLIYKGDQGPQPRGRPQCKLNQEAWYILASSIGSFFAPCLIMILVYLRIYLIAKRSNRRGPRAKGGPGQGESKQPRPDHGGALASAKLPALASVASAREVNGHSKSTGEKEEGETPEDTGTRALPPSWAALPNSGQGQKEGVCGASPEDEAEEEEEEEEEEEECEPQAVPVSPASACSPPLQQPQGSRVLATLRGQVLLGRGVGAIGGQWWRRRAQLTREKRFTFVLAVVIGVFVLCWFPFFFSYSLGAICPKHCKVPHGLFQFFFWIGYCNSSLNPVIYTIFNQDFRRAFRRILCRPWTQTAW
Experimental: (§1) Neuro-receptor binding and functional effects of the “E559 polymorph” was examined by analyzing binding affinity [Ki (nM)], functional agonist activity [EC50 (nM)], and functional antagonist activity [IC50 (nM)] against a panel of key receptors in neurophysiological disorders. Binding and functional assays were performed at “E559 polymorph” concentrations of 0.0003, 0.003, 0.01, 0.03, 0.1, 0.3, 1, and 10 μM. In binding assays, cell membrane homogenates, expressing each receptor target, were incubated with the corresponding radio-ligand in absence or presence of several concentration of the “E559 polymorph” compound. The measurement of binding affinity of the “E559 polymorph” is represented in TABLE XIII by Ki (nM) which was calculated as percent inhibition of the binding of a radioactively labeled reference ligand at each receptor. In functional assays the HEK-293 cells expressing each receptor target were suspended in buffer and distribute in microplates and incubated for 30 minutes at room temperature or 37° C. in the presence of buffer alone (basal control), the reference agonist or antagonist, or the “E559 polymorph. Following incubation, the cells were lysed and the appropriate fluorescent probe (Ca2+ flux, cAMP, or IP1) were added for 60 minutes to measure the fluorescence transfer at the appropriate wavelength using a microplate reader. The cellular agonist effect (EC50) was calculated as a percent of control response to a known reference agonist and the cellular antagonist effect (IC50) was calculated as a percent inhibition of control reference agonist response for each receptor.

[2] = target: T2, Beta 2 adrenergic receptor (Homo sapiens, UniProt P07550); assay: Radioligand binding, cell membrane homogenates
T2 construct: expressed in transfected cells; host or cells: HEK-293
Experimental: as §1

[3] = target: ADRb2 (β2 adrenergic receptor) (Homo sapiens, UniProt P07550); assay: BRET-based G protein dissociation assay; assay type: cell-based
DOI induced HTR in mice = assay: Blockade of DOI-induced HTR; assay type: in vivo, mouse; details: 10 min before DOI 1 mg/kg
Experimental: The “E559 polymorph” was studied for its effect to block the hallucinogenic (HTR) response of a psychedelic 2,5-Dimethoxy-4-iodoamphetamine (DOI) in the mouse HTR model. DOI is a serotonergic hallucinogenic compound used commonly as a positive control in HTR model [Halberstadt et al., Psychopharmacology (Berl). 2013 June; 227(4):727-39]. An HTR study was performed as described in Example 2 as follows: Five groups of mice (n=6-7 per group, 31 total) were either treated with vehicle (saline) or with the “E559 polymorph” at 0.1, 0.3, 1, or 3 mg/kg. Ten minutes later, all of the mice were injected with DOI (1 mg/kg) and then HTR activity was assessed for 30 min. […] All doses of the “E559 polymorph” were effective in blocking the response to DOI in a dose-dependent manner. The data are represented as group means±standard deviation and asterisks indicate statistical significances (*p<0.0001) compared to the vehicle (saline) control (0 mg/kg in FIG. 13A).
The time course of the blockade of the DOI induced HTR by the “E559 polymorph” was examined. An HTR study was performed as described in Example 2 as follows: Two groups of mice (n=6 per group) were either treated with vehicle or with the “E559 polymorph” at 1 mg/kg. Ten minutes later, all of the mice were injected with DOI (1 mg/kg) and then HTR activity was assessed for 30 min. […] The data are represented as group means±standard deviation and asterisks indicate statistical significances (*p<0.0001) compared to the vehicle (saline) control (0 mg/kg in FIG. 13B). The time course of the blockade of the DOI induced HTR by the “E559 polymorph” mirrors the time course of the pharmacokinetics of the “E559 polymorph” in the mouse brain tissue (shown in Example 3).

C57BL/6J mice = assay: Chronic variable stress (CVS) mouse model, open field test and splash test; assay type: in vivo; details: for CVS induced decrease of time in center of open field: female mice
Experimental: The “polymorph HT compound” (from Example 1) was tested for its anti-depression/anxiety activity in the chronic variable stress (CVS) mouse model as assessed by a self-grooming splash test and an open field test (OFT) [Strekalova et al., Psychopharmacology (Berl). 2022, 239(3):663-693; Willner, P. Neurobiol Stress, 2017, 6:78-93]. In brief, C57BL/6J mice were subjected to a CVS protocol, consisting of 2 stressors per day for 35 days. Naive mice (not exposed to CVS) are used as a control for CVS-induced depression activity. Following the 35 days CVS, mice were treated with the “E559 polymorph” (FIG. 23) via intraperitoneal injection (IP) as follows: single dose after the last day of CVS (3 mg/kg) or 4 doses (1 mg/kg) applied every 48 hours starting on day 28 of CVS. Saline was used as the vehicle control. The splash test and OFT were performed as previously described in (Aguilar-Valles et al., Nature, 2021, 590, p315-319). […] FIG. 23B represents distance travelled in the open field by female mice treated with E559 polymorph. FIG. 23C represents time spend in the center of the open field of mice in FIG. 23B. […] Horizontal lines represent the mean±standard error of the mean (S.E.M.) and asterisks indicate statistical significances.

ADRb2 (β2 adrenergic receptor), sequence (P07550 whole entry): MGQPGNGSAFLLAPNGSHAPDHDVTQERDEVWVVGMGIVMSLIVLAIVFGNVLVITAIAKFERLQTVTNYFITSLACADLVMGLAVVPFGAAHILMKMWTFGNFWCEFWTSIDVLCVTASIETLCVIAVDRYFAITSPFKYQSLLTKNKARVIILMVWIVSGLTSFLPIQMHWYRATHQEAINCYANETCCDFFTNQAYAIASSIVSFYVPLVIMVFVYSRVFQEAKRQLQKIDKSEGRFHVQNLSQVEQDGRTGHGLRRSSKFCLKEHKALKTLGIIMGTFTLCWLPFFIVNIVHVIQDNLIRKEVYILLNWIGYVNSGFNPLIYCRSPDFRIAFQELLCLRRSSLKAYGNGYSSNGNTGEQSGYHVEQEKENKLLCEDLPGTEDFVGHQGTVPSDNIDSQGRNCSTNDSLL
T2 sequence (P07550 whole entry): as above

`CCN(CC)C(=O)[C@@H]1C=C2c3cccc4[nH]c(Br)c(c34)C[C@H]2N(C)C1` [E559, (5R, 8R)-2-Bromo-9,10-didehydro-N,N-diethyl-6-methylergoline-8-carboxamide hemi-D-tartrate] gave a Ki [1] of 0.027 µM, a Ki [2] of 0.088 µM and an EC50 [3] of 0.00426 µM. The Kb [3] was 0.0176 µM, the “blockade of DOI induced HTR, time course” value (DOI induced HTR in mice; 1 mg/kg) was “almost completely blocked the DOI induced HTR during the first 10 minutes” and the “time after which blockage of DOI induced HTR was no longer detected” value (DOI induced HTR in mice; 1 mg/kg) was 40 to 60 min. For the same molecule, the “attenuation of DOI-induced HTR” value (DOI induced HTR in mice; 0.1, 0.3, 1 or 3 mg/kg) was “significantly attenuated the ability of DOI to induce the HTR in mice”, the “CVS effect on time in center in OFT, 28 days after the last treatment” value (C57BL/6J mice; 4×1 mg/kg) was “remained reversed” and the “locomotion (total distance travelled) in open field, CVS mice” value (C57BL/6J mice; 4×1 mg/kg) was “without affecting locomotion”. For the same molecule, the “time spent self-grooming in the splash test” value (C57BL/6J mice; female CVS mice) was “partially reversed this CVS-induced effect”, the “CVS induced decrease of time in center of open field” value (C57BL/6J mice; IP 4 doses of 1 mg/kg every 48 hours) was “fully reversed to the levels seen in the control” and the “CVS induced decrease of time in center of open field” value (C57BL/6J mice; IP single dose of 3 mg/kg) was “partially restored the effect of CVS”.
